Results as given in patent US9315475B2 (MERCK SHARP & DOHME CORP., priority 2011, dated 2016).

Tested on: HIV-1 (H9IIIB strain)
Experiment: Antiviral acute infection assay in cell culture (Spread)
Assay type: cell-based
Conditions: Human immunodeficiency virus 1, T-lymphoid, HIV-1 H9IIIB infection of MT-4 human T-lymphoid cells in 10% FBS; mean of at least two independent experiments
Source text: Antiviral Assays in Cell Culture (“Spread”)
Acute Infection Assay (“Spread”) data were generated using HIV-1 (H9IIIB strain) infection of MT-4 human T-lymphoid cells in 10% FBS, and according to the methods disclosed by J. P. Vacca et al, “L-735,524: An orally bioavailable human immunodeficiency virus type 1 protease inhibitor,” Proc. Natl. Acad. Sci. USA, Vol. 91, pp. 4096-4100 (April 1994).

SMILES	EC50 [nM]
O=C(C[C@@H](c1ccc(F)cc1)c1ccc(C(F)(F)F)nc1)Nc1cncc(F)c1CC[C@@H]1CN[C@H](COC(=O)NCC(F)(F)F)CO1 [Example 133, [(3S,6R)-6-{2-[3-Fluoro-5-({(3S)-3-(4-fluorophenyl)-3-[6-(trifluoromethyl)pyridin-3-yl]propanoyl}amino)pyridin-4-yl]ethyl}morpholin-3-yl]methyl (2,2,2-trifluoroethyl)carbamate]	23
COC(=O)N[C@H](C(=O)Nc1cccc(F)c1CC[C@@H]1CN[C@H](COC(N)=O)CO1)[C@@H](c1ccc(F)cc1)c1cccc(F)c1 [Example 118, (βS)—N-[2-(2-{(2R,5S)-5-[(Carbamoyloxy)methyl]morpholin-2-yl}ethyl)-3-fluorophenyl]-4-fluoro-β-(3-fluorophenyl)-Nα-(methoxycarbonyl)-L-phenylalaninamide]	17
COC(=O)N[C@H](C(=O)Nc1cncc(F)c1CC[C@@H]1CN[C@H](COC(=O)NCC(F)(F)F)CO1)[C@@H](c1ccc(Cl)cc1)c1ccc2c(c1)OCO2 [Example 104, (βS)-β-1,3-Benzodioxol-5-yl-4-chloro-N-(5-fluoro-4-{2-[(2R,5S)-5-({[(2,2,2-trifluoroethyl)carbamoyl]oxy}methyl)morpholin-2-yl]ethyl}pyridin-3-yl)-Nα-(methoxycarbonyl)-L-phenylalaninamide]	26
CC(NC(=O)OC[C@@H]1CO[C@H](CCc2c(F)cncc2NC(=O)CC(c2ccc(F)cc2)c2ccc(F)cc2)CN1)C1CCCO1 (stereo partly drawn) [Example 171, {(3S,6R)-6-[2-(3-{[3,3-bis(4-fluoro-phenyl)propanoyl]amino}-5-fluoropyridin-4-yl)ethyl]morpholin-3-yl}methyl [1-(tetrahydrofuran-2-yl)ethyl]carbamate]	68
O=C(CC(c1ccc(F)cc1)c1ccc(F)cc1)Nc1cncc(F)c1CC[C@@H]1CN[C@H](COC(=O)NCCOc2ccccc2)CO1 [Example 170, {(3S,6R)-6-[2-(3-{[3,3-bis(4-fluoro-phenyl)propanoyl]amino}-5-fluoropyridin-4-yl)ethyl]morpholin-3-yl}methyl (2-phenoxyethyl)carbamate]	61
O=C(C[C@@H](c1ccc(Cl)cc1)c1ccc2c(c1)CCO2)Nc1cncc(F)c1CC[C@@H]1CN[C@H](COC(=O)NCC(F)(F)F)CO1 [Example 114, {(3S,6R)-6-[2-(3-{[(3S)-3-(4-Chlorophenyl)-3-(2,3-dihydro-1-benzofuran-5-yl)propanoyl]amino}-5-fluoropyridin-4-yl)ethyl]morpholin-3-yl}methyl (2,2,2-trifluoroethyl)carbamate]	14
NC(=O)[C@H]1CCCCC1NC(=O)OC[C@@H]1CO[C@H](CCc2c(F)cncc2NC(=O)CC(c2ccc(F)cc2)c2ccc(F)cc2)CN1 (stereo partly drawn) [Example 187, {(3S,6R)-6-[2-(3-{[3,3-bis(4-fluoro-phenyl)propanoyl]amino}-5-fluoropyridin-4-yl)ethyl]morpholin-3-yl}methyl [(2S)-2-carbamoylcyclohexyl] carbamate]	210
O=C(CC(c1ccc(F)cc1)c1ccc(F)cc1)Nc1cncc(F)c1CC[C@@H]1CN[C@H](CNC(=O)OCC(F)(F)F)CO1 [Example 85, 2,2,2-trifluoroethyl ({(3R,6R)-6-[2-(3-{[3,3-bis(4-fluoro-phenyl)propanoyl]amino}-5-fluoropyridin-4-yl)ethyl]morpholin-3-yl}methyl)carbamate]	87
O=C(CC(c1ccc(F)cc1)c1ccc(F)cc1)Nc1cncc(F)c1CC[C@@H]1CN[C@H](COC(=O)NCc2ccno2)CO1 [Example 188, {(3S,6R)-6-[2-(3-{[3,3-bis(4-fluoro-phenyl)propanoyl]amino}-5-fluoropyridin-4-yl)ethyl]morpholin-3-yl}methyl (isoxazol-5-ylmethyl)carbamate]	50
N[C@H](C(=O)Nc1cncc(F)c1CC[C@@H]1CN[C@H](COC(=O)NCC(F)(F)F)CO1)[C@H](c1ccc(F)cc1)c1ccc(-c2cccnc2)cc1 [Example 224, (βS)-β-(4-fluorophenyl)-N-(5-fluoro-4-{2-[(2R,5S)-5-({[(2,2,2-trifluoro-ethyl)carbamoyl]oxy}methyl)morpholin-2-yl]ethyl}pyridin-3-yl)-4-pyridin-3-yl-L-phenylalaninamide]	260
O=C(C[C@@H](c1ccc(F)cc1)c1ccccc1F)Nc1cncc(F)c1CC[C@@H]1CN[C@H](COC(=O)NCC(F)(F)F)CO1 [Example 158, {(3S,6R)-6-[2-(3-fluoro-5-{[(3S)-3-(2-fluorophenyl)-3-(4-fluorophenyl)propanoyl]amino}pyridin-4-yl)ethyl]morpholin-3-yl]methyl (2,2,2-trifluoroethyl)carbamate]	34
O=C(CC(c1ccc(F)cc1)c1ccc(F)cc1)Nc1cncc(F)c1CC[C@@H]1CN[C@H](COC(=O)NC2CCOC2)CO1 (stereo partly drawn) [Example 173, {(3S,6R)-6-[2-(3-{[3,3-bis(4-fluoro-phenyl)propanoyl]amino}-5-fluoropyridin-4-yl)ethyl]morpholin-3-yl}methyl tetrahydrofuran-3-ylcarbamate]	37
O=C(C[C@@H](c1ccc(F)cc1)c1ccncc1F)Nc1cccc(F)c1CC[C@@H]1CN[C@H](COC(=O)NCC(F)(F)F)CO1 [Example 138, {(3S,6R)-6-[2-(2-Fluoro-6-{[(3S)-3-(4-fluorophenyl)-3-(3-fluoropyridin-4-yl)propanoyl]amino}phenyl)ethyl]morpholin-3-yl}methyl (2,2,2-trifluoroethyl)carbamate]	31
N[C@H](C(=O)Nc1cccc(F)c1CC[C@@H]1CN[C@H](COC(=O)NCC(F)(F)F)CO1)[C@@H](c1ccc(F)cc1)c1ccc(OC(F)(F)F)cc1 [Example 219, (βR)-β-(4-fluorophenyl)-N-(3-fluoro-2-{2-[(2R,5S)-5-({[(2,2,2-trifluoroethyl)carbamoyl]oxy}methyl)morpholin-2-yl]ethyl}phenyl)-O-(trifluoromethyl)-L-tyrosinamide]	140
COC(=O)N[C@H](C(=O)Nc1cccc(F)c1CC[C@@H]1CN[C@H](COC(=O)NCC(F)(F)F)CO1)[C@@H](c1ccc(Cl)cc1)c1cncc(F)c1 [Example 137, (βS)-4-Chloro-β-(5-fluoropyridin-3-yl)-N-(3-fluoro-2-{2-[(2R,5S)-5-({[(2,2,2-trifluoroethyl)carbamoyl]oxy}methyl)morpholin-2-yl]ethyl}phenyl)-Nα-(methoxycarbonyl)-L-phenylalaninamide]	9.8
COC(=O)N[C@H](C(=O)Nc1cccc(F)c1CC[C@@H]1CN[C@H](COC(=O)NCC(F)(F)F)CO1)[C@@H](c1ccc(F)cc1)c1ccccc1OC(F)(F)F [Example 111, (βS)-4-Fluoro-N-(3-fluoro-2-{2-[(2R,5S)-5-({[(2,2,2-trifluoroethyl)carbamoyl]oxy}methyl)morpholin-2-yl]ethyl}phenyl)-Nα-(methoxycarbonyl)-β-[2-(trifluoromethoxy)phenyl]-L-phenylalaninamide]	25
N#Cc1ncccc1[C@@H](CC(=O)Nc1cccc(F)c1CC[C@@H]1CN[C@H](COC(=O)NCC(F)(F)F)CO1)c1ccc(F)cc1 [Example 178, {(3S,6R)-6-[2-(2-{[(3S)-3-(2-cyanopyridin-3-yl)-3-(4-fluorophenyl)propanoyl]amino}-6-fluoro-phenyl)ethyl]morpholin-3-yl}methyl (2,2,2-trifluoroethyl)carbamate]	85
COC(=O)N[C@H](C(=O)Nc1cncc(F)c1CC[C@@H]1CN[C@H](COC(=O)NCC(F)(F)F)CO1)[C@@H](c1ccc(F)cc1)c1cccc(Cl)c1 [Example 301, (βS)-3-chloro-β-(4-fluorophenyl)-N-(5-fluoro-4-{2-[(2R, 5S)-5-({[(2,2,2-trifluoroethyl)carbamoyl]oxy}methyl)morpholin-2-yl]ethyl}pyridin-3-yl)-Nα-(methoxycarbonyl)-L-phenylalaninamide]	25
O=C(C[C@@H](c1ccc(F)cc1)c1cccc(F)c1F)Nc1cccc(F)c1CC[C@@H]1CN[C@H](COC(=O)NCC(F)(F)F)CO1 [Example 153, {(3S,6R)-6-[2-(2-{[(3S)-3-(2,3-difluorophenyl)-3-(4-fluorophenyl)propanoyl]amino}-6-fluoro-phenyl)ethyl]morpholin-3-yl}methyl (2,2,2-trifluoroethyl)carbamate]	130
O=C(C[C@@H](c1ccc(F)cc1)c1cncc(C(F)(F)F)c1)Nc1cncc(F)c1CC[C@@H]1CN[C@H](COC(=O)NCC(F)(F)F)CO1 [Example 184, [(3S,6R)-6-{2-[3-fluoro-5-({(3S)-3-(4-fluorophenyl)-3-[5-(trifluoromethyl)pyridin-3-yl]propanoyl}amino)pyridin-4-yl]ethyl}morpholin-3-yl]methyl (2,2,2-trifluoroethyl)carbamate]	15
COC(=O)N[C@H](C(=O)Nc1cccc(F)c1CC[C@@H]1CN[C@H](COC(=O)NCC(F)(F)F)CO1)[C@@H](c1ccc(Cl)cc1)c1ccc2c(c1)OCO2 [Example 110, (βS)-β-1,3-Benzodioxol-5-yl-4-chloro-N-(3-fluoro-2-{2-[(2R,5S)-5-({[(2,2,2-trifluoroethyl)carbamoyl]oxy}methyl)morpholin-2-yl]ethyl}phenyl)-Nα-(methoxycarbonyl)-L-phenylalaninamide]	6.9
N#Cc1ccc([C@H](c2ccc(F)c(F)c2)[C@H](N)C(=O)Nc2cccc(F)c2CC[C@@H]2CN[C@H](COC(=O)NCC(F)(F)F)CO2)cc1 [Example 102, (βR)-β-(4-Cyanophenyl)-3,4-difluoro-N-(3-fluoro-2-{2-[(2R,5S)-5-({[(2,2,2-trifluoroethyl)carbamoyl]oxy}methyl)morpholin-2-yl]ethyl}phenyl)-L-phenylalaninamide]	37
